Experimental data reported in patent US20260048099A1, “SYNERGISTIC INTERACTIONS FOR IMPROVED CANCER TREATMENT” (THE UNITED STATES OF AMERICA, AS REPRESENTED BY THE …, priority 2022, published 2026).

Columns and labels:
xenograft models = conditions: cited from earlier work
[1] = tested on: tumor-infiltrating CD8^+T, NK cells and DC populations in EO771 tumors; experiment: Flow cytometry and IHC of immune infiltrates in EO771 tumors and draining lymph nodes; assay type: in vivo, C57BL/6 mice; conditions: flow cytometry
Protocol: EO771 tumors were analyzed by flow cytometry and immunohistochemistry (IHC) to explore the changes in the tumor immune phenotype upon hetIL-15 treatment. The shorter treatment schedule consisting of 3 hetIL-15 injections was used for these analyses and the tumors were assessed 48 h after the last injection (FIG. 1A). […] Overall, hetIL-15 administration altered the tumor microenvironment by promoting the intratumoral infiltration of activated cytotoxic T and NK cells, as we previously reported (Bergamaschi et al., 2020; Ng et al., 2017).
Guided by our transcriptomic data and our recent report (Bergamaschi et al., 2020), we established a flow cytometry staining protocol (FIG. 3B) that allows distinction of different myeloid cell populations (Bottcher et al., 2018; Guilliams et al., 2016). CD103^+cDC1s were defined as Lin(NK1.1,CD19,B220,CD3)^negCD64^−MHCII^+CD11c^+CD103^+CD11b^−; CD11b^+cDC2s were defined as Lin(NK1.1,CD19,B220,CD3)^negCD64^−MHCII^+CD11c^+CD103^−CD11b^+ and macrophages were defined as Lin(NK1.1, CD19,B220,CD3)^negCD64^+F4/80^+. […] Importantly, tumor infiltration by both […] and CD103^intCD11b^+DCs inversely correlated with the EO771 tumor size in hetIL-15 treated animals 48 hrs after the 3rd hetIL-15 injection (FIG. 3F). In contrast, no correlation between intratumoral CD11b^+cDC2s and tumor size was observed (FIG. 3F).
Tissue samples, including tumors, were fixed in 10% neutral buffered formalin (NBF, Sigma) then routinely processed and paraffin embedded. Tumor and lung sections were dewaxed and rehydrated and then were stained with hematoxylin and eosin (H&E). For immunohistochemistry, sections were antigen-retrieved with heat-induced or enzymatic method. Peroxidase activity was blocked using 1.5% hydrogen peroxide. Sections were blocked with different blocking protocols, depending on the antibody. […]
At necropsy tumors and dLNs were processed for flow cytometric analysis. […] The samples were acquired on a Fortessa (BD Biosciences) flow cytometer, and the data were analyzed using the FlowJo software (Tree Star).

NK-92 cells = experiment: IFN-γ production by stimulated NK-92 cells; assay type: cell-based; conditions: stimulation of NK-92 cells

| Molecule | Lowest dose with activity in animal models (xenograft models; doses as low as) [mg/kg] | Efficacy and tolerability (xenograft models; xenograft models) | Intratumoral CD11b+cDC2 (cells per gram of tissue) [1] | Intratumoral CD103+cDC1 (cells per gram of tissue) [1] | Intratumoral CD103intCD11b+DC (cells per gram of tissue) [1] | IFN-γ production (NK-92 cells) |
| --- | --- | --- | --- | --- | --- | --- |
| CC(C)(C)c1cc(NC(=O)Nc2ccc(-c3cn4c(n3)sc3cc(OCCN5CCOCC5)ccc34)cc2)no1.Cl.Cl [AC220, N-(5-tert-butyl-isoxazol-3-yl)-N′-{4-[7-(2-morpholin-4-yl-ethoxy)imidazo[2,1-b][1,3]benzothiazol-2-yl]phenyl}urea dihydrochloride] | 1 | good efficacy and tolerability | increased infiltration of CD11b^+cDC2s | a minor effect on CD103+cDC1s, decreasing this DC population | no significant difference |  |
| IL-12p70: active IL-12 heterodimer of IL-12A (p35) and IL-12B (p40), referred to as p70 (protein, UniProt P29459 23-219; P29460 23-328, looked up) Interleukin-12 subunit alpha: RNLPVATPDPGMFPCLHHSQNLLRAVSNMLQKARQTLEFYPCTSEEIDHEDITKDKTSTVEACLPLELTKNESCLNSRETSFITNGSCLASRKTSFMMALCLSSIYEDLKMYQVEFKTMNAKLLMDPKRQIFLDQNMLAVIDELMQALNFNSETVPQKSSLEEPDFYKTKIKLCILLHAFRIRAVTIDRVMSYLNAS Interleukin-12 subunit beta: IWELKKDVYVVELDWYPDAPGEMVVLTCDTPEEDGITWTLDQSSEVLGSGKTLTIQVKEFGDAGQYTCHKGGEVLSHSLLLLHKKEDGIWSTDILKDQKEPKNKTFLRCEAKNYSGRFTCWWLTTISTDLTFSVKSSRGSSDPQGVTCGAATLSAERVRGDNKEYEYSVECQEDSACPAAEESLPIEVMVDAVHKLKYENYTSSFFIRDIIKPDPPKNLQLKPLKNSRQVEVSWEYPDTWSTPHSYFSLTFCVQVQGKSKREKKDRVFTDKTSATVICRKNASISVRAQDRYYSSSWSEWASVPCS |  |  |  |  |  | results in IFN-γ production |
